Values after ≈ are worked out from the molar mass of the structure shown.
What was measured:
S. aureus = assay: Minimum inhibitory concentration against the S. aureus strain used in the studies; format: cell-based; conditions: Staphylococcus aureus; strain of S. aureus used in the studies
[1] = Solubility in extraction/HPLC solvents; format: physicochemical

For `CO[C@H]1/C=C/O[C@@]2(C)Oc3c(C)c(O)c4c(O)c(c(/C=N/N5CCN(C)CC5)c(O)c4c3C2=O)NC(=O)/C(C)=C\C=C\[C@H](C)[C@H](O)[C@@H](C)[C@@H](O)[C@@H](C)[C@H](OC(C)=O)[C@@H]1C` [rifampin], which MIC (S. aureus) is on record?
Its MIC is 0.06 µg/mL (≈ 0.0729 µM).

What about the “solubility in methanol and THF/ethanol 4:1” value [1] of the same compound?
The value was “good solubility”.

— US8445008B2, “Reduction of infection associated with medical device” (Medtronic, Inc., priority 2008, dated 2013)
